The compounds below were run against Recombinant Human ENPP-1 Protein (Homo sapiens (Human), UniProt P22413) (assay: ENPP1 Inhibition Assay). Details: substrate thymidine 5′-monophosphate p-nitrophenol ester, absorbance at 405 nm.
Assay type: biochemical
Method: 1. ENPP1 Inhibition Assay
Materials: • Assay Buffer: 1 mM CaCl2, 0.2 mM ZnCl2, 50 mM Tris, pH 9.0 • Substrate: 8 mM Thymidine 5′-monophosphate p-nitrophenol ester sodium salt (Sigma Cat # T4510) • Enzyme: 5 ng/μL Recombinant Human ENPP-1 Protein (R&D Cat #6136-EN-010) DMSO • 96-well clear assay plates
An eight point serial dilution of drugs was prepared in 10× in assay buffer with the final assay concentrations starting at 10 μM, 3 μM, 1 μM, 0.3 μM . . . 0 μM. A dilution of DMSO was included as a control. The assay plate was set up as follows with each well in duplicate: 81 μL assay buffer+10 μL ENPP1 inhibitor or DMSO+5 μL Substrate+4 μL Enzyme. Both the enzyme and substrate were added to opposite sides of the well to ensure that there was no interaction until all wells had both components. The plate was then centrifuged gently for 10 seconds, followed by an incubation at 37° C. for 45 minutes. The reaction was quantified by measuring absorbance at 405 nm using the Envision.
IC50 values are determined using GraphPad Prism 5 software. The data were entered as an X-Y plot into the software as percent inhibition for each concentration of the drug. The concentration values of the drug were log transformed and the nonlinear regression was carried out using the “sigmoidal dose-response (variable slope)” option within the GraphPad software to model the data and calculate IC50 values. The IC50 values reported are the concentration of drug at which 50% inhibition was reached.

Sequence of Recombinant Human ENPP-1 Protein (P22413 whole entry): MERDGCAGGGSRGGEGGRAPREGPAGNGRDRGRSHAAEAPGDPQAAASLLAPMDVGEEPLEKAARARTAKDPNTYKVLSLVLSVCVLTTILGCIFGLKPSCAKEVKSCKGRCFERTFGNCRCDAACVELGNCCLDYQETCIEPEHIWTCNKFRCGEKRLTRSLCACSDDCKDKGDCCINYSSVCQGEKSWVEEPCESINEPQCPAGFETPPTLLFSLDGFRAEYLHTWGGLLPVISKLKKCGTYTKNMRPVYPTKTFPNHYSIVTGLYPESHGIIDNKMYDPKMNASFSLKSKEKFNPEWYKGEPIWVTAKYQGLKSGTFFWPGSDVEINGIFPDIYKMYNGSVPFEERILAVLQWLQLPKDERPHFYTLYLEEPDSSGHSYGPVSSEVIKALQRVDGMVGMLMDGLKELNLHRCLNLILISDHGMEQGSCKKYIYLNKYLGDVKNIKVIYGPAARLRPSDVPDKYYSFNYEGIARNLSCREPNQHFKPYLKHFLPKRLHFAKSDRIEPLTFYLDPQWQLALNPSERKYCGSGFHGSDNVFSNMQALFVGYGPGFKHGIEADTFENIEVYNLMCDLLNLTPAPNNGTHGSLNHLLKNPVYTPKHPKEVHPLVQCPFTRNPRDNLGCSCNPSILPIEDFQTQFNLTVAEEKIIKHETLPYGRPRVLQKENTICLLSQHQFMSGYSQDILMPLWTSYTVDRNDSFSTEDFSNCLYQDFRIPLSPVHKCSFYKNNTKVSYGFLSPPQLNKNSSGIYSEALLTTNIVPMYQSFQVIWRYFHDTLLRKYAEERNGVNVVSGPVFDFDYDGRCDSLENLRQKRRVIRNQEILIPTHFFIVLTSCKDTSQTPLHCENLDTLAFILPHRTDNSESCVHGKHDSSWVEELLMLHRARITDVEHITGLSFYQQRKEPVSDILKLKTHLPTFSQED

Row | SMILES | IC50
1 | COc1cnc(NC(=O)CSc2nc3cc(Cl)ncc3[nH]2)cc1OC [Compound 85, 2-((6-chloro-1H-imidazo[4,5-c]pyridin-2-yl)thio)-N-(4,5-dimethoxypyridin-2-yl)acetamide] | 0.266 µM
2 | O=C(CSc1nc2cc(Cl)ncc2[nH]1)Nc1ccc(OC(F)F)cc1 [Compound 40, 2-((6-Chloro-3H-imidazo[4,5-c]pyridin-2-yl)thio)-N-(4-(difluoromethoxy)phenyl)acetamide] | 33.6 µM
3 | COc1ccc(NC(=O)CSc2nc3cnc(Cl)c(C)c3[nH]2)cc1OC [Compound 52, 2-((6-Chloro-7-methyl-1H-imidazo[4,5-c]pyridin-2-yl)thio)-N-(3,4-dimethoxyphenyl)acetamide] | 1.14 µM
4 | COc1ccc(NC(=O)CSc2nc3c(C)c(C#N)ncc3[nH]2)cc1F [Compound 93, 2-((6-Cyano-7-methyl-3H-imidazo[4,5-c]pyridin-2-yl)thio)-N-(3-fluoro-4-methoxyphenyl)acetamide] | 0.224 µM
5 | COc1ccc(NC(=O)CSc2nc3cnc(Cl)cc3[nH]2)cc1OC(F)(F)F [Compound 35, 2-((6-chloro-1H-imidazo[4,5-c]pyridin-2-yl)thio)-N-(4-methoxy-3-(trifluoromethoxy)phenyl)acetamide] | 40.7 µM
6 | COc1ccc(NC(=O)C(C)Sc2nc3cnc(Cl)cc3[nH]2)cc1OC (stereo not drawn) [Compound 14, 2-((6-Chloro-1H-imidazo[4,5-c]pyridin-2-yl)thio)-N-(3,4-dimethoxyphenyl)propanamide] | 3.52 µM
7 | COc1ccc(NC(=O)CS(=O)(=O)c2nc3cnc(Cl)cc3[nH]2)cc1F [Compound 70, 2-((6-chloro-1H-imidazo[4,5-c]pyridin-2-yl)sulfonyl)-N-(3-fluoro-4-methoxyphenyl)acetamide] | 30.2 µM
8 | COc1ccc(NC(=O)CSc2nc3cc(Cl)ncc3[nH]2)cn1 [Compound 72, 2-((6-chloro-3H-imidazo[4,5-c]pyridin-2-yl)thio)-N-(6-methoxypyridin-3-yl)acetamide] | 3.29 µM
9 | O=C(CSc1nc2cc(Cl)ncc2[nH]1)Nc1ccc2c(c1)OCO2 [Compound 7, N-(benzo[d][1,3]dioxol-5-yl)-2-((6-chloro-1H-imidazo[4,5-c]pyridin-2-yl)thio)acetamide] | > 50 µM
10 | Cc1cncc2[nH]c(SCC(=O)Nc3ccc4c(c3)OCO4)nc12 [Compound 10, N-(benzo[d][1,3]dioxol-5-yl)-2-((7-methyl-1H-imidazo[4,5-c]pyridin-2-yl)thio)acetamide] | 50 µM
11 | COc1ccc(NC(=O)CSc2nc3cc(Cl)ncc3[nH]2)nc1OC [Compound 87, 2-((6-chloro-1H-imidazo[4,5-c]pyridin-2-yl)thio)-N-(5,6-dimethoxypyridin-2-yl)acetamide] | 1.98 µM
12 | COc1ccc(NC(=O)CSc2nc3cc(Cl)ncc3[nH]2)cc1OCC(F)(F)F [Compound 89] | 11.3 µM
13 | Cc1c(Cl)ncc2nc(SCC(=O)Nc3ccc(F)c(O)c3)[nH]c12 [Compound 51, 2-((6-Chloro-7-methyl-1H-imidazo[4,5-c]pyridin-2-yl)thio)-N-(4-fluoro-3-hydroxyphenyl)acetamide] | 1.27 µM
14 | Cc1c(C#N)ncc2[nH]c(SCC(=O)Nc3ccc(F)c(O)c3)nc12 [Compound 79, 2-((6-Cyano-7-methyl-3H-imidazo[4,5-c]pyridin-2-yl)thio)-N-(4-fluoro-3-hydroxyphenyl)acetamide] | 6.52 µM
15 | O=C(CSc1nc2cc(C(F)(F)F)ncc2[nH]1)Nc1ccc(OC(F)(F)F)c(O)c1 [Compound 61, N-(3-Hydroxy-4-(trifluoromethoxy)phenyl)-2-((6-(trifluoromethyl)-3H-imidazo[4,5-c]pyridin-2-yl)thio)acetamide] | 22.6 µM

Results, then the compound that gave them:

Row | IC50 | SMILES
16 | 1.16 µM | COc1cc(NC(=O)CSc2nc3cc(Cl)ncc3[nH]2)ccc1OC(F)F [Compound 29, 2-((6-Chloro-1H-imidazo[4,5-c]pyridin-2-yl)thio)-N-(4-(difluoromethoxy)-3-methoxyphenyl)acetamide]
17 | 5.63 µM | COc1ccc(NC(=O)CSc2nc3cnc(Cl)c(C)c3[nH]2)cc1F [Compound 50, 2-((6-Chloro-7-methyl-1H-imidazo[4,5-c]pyridin-2-yl)thio)-N-(3-fluoro-4-methoxyphenyl)acetamide]
18 | 4.46 µM | COc1ccc(NC(=O)CSc2nc3c(C)cncc3[nH]2)cc1OC [Compound 9, N-(3,4-dimethoxyphenyl)-2-((7-methyl-1H-imidazo[4,5-c]pyridin-2-yl)thio)acetamide]
19 | 10.2 µM | COc1c(F)cc(NC(=O)CSc2nc3cnc(C(F)(F)F)cc3[nH]2)cc1F [Compound 44, N-(3,5-Difluoro-4-methoxyphenyl)-2-((6-(trifluoromethyl)-3H-imidazo[4,5-c]pyridin-2-yl)thio)acetamide]
20 | 0.667 µM | COc1ccc(NC(=O)CSc2nc3cnc(Cl)c(C)c3[nH]2)cc1O [Compound 49, 2-((6-Chloro-7-methyl-1H-imidazo[4,5-c]pyridin-2-yl)thio)-N-(3-hydroxy-4-methoxyphenyl)acetamide]
21 | 5.73 µM | COc1cc2nc(NC(=O)CSc3nc4cc(Cl)ncc4[nH]3)sc2cc1OC [Compound 54, 2-((6-Chloro-3H-imidazo[4,5-c]pyridin-2-yl)thio)-N-(5,6-dimethoxybenzo[d]thiazol-2-yl)acetamide]
22 | 7.93 µM | O=C(CSc1nc2cnc(Cl)cc2[nH]1)Nc1cccc(O)c1 [Compound 25, 2-((6-Chloro-1H-imidazo[4,5-c]pyridin-2-yl)thio)-N-(3-hydroxyphenyl)acetamide]
23 | 0.216 µM | N#Cc1cc2nc(SCC(=O)Nc3ccc(F)c(O)c3)[nH]c2cn1 [Compound 69, 2-((6-Cyano-3H-imidazo[4,5-c]pyridin-2-yl)thio)-N-(4-fluoro-3-hydroxyphenyl)acetamide]
24 | 2.29 µM | COc1ccc(NC(=O)CSc2nc3c(C)cncc3[nH]2)cc1O [Compound 16, N-(3-hydroxy-4-methoxyphenyl)-2-((7-methyl-1H-imidazo[4,5-c]pyridin-2-yl)thio)acetamide]
25 | 6.02 µM | COc1ccc(NC(=O)CSc2nc3cc(Cl)ncc3[nH]2)cc1N [Compound 82, N-(3-Amino-4-methoxyphenyl)-2-((6-chloro-3H-imidazo[4,5-c]pyridin-2-yl)thio)acetamide]
26 | 11.3 µM | COc1ccc(NC(=O)C(C)Sc2nc3cnc(C(F)(F)F)cc3[nH]2)cc1O (stereo not drawn) [Compound 42, N-(3-Hydroxy-4-methoxyphenyl)-2-((6-(trifluoromethyl)-3H-imidazo[4,5-c]pyridin-2-yl)thio)propanamide]
27 | 0.179 µM | COc1ccc(NC(=O)CSc2nc3cc(C#N)ncc3[nH]2)cc1O [Compound 67, 2-((6-Cyano-3H-imidazo[4,5-c]pyridin-2-yl)thio)-N-(3-hydroxy-4-methoxyphenyl)acetamide]
28 | 4.55 µM | COc1ccc(NC(=O)CSc2nc3cc(Cl)ncc3[nH]2)cc1[N+](=O)[O-] [Compound 83, 2-((6-Chloro-3H-imidazo[4,5-c]pyridin-2-yl)thio)-N-(4-methoxy-3-nitrophenyl)acetamide]
29 | 7.92 µM | O=C(CSc1nc2cnc(Cl)cc2[nH]1)Nc1ccc(O)cc1 [Compound 33, 2-((6-chloro-1H-imidazo[4,5-c]pyridin-2-yl)thio)-N-(4-hydroxyphenyl)acetamide]
30 | 0.4 µM | COc1ccc(NC(=O)CSc2nc3cnc(Cl)cc3[nH]2)cc1F [Compound 27, 2-((6-Chloro-1H-imidazo[4,5-c]pyridin-2-yl)thio)-N-(3-fluoro-4-methoxyphenyl)acetamide]

Source: US10689376B2, “Substituted-3H-imidazo [4,5-c] pyridine and 1H-pyrrolo[2,3-c]pyridine series of novel ectonucleotide pyrophosphatase/phosphodiesterase-1 (ENPP1) and stimulator for interferon genes (STING) modulators as cancer immunotherapeutics” (Stingray Therapeutics, Inc., priority 2017, dated 2020)
